The structures appear in SMILES notation. The source made the active and inactive calls.

Experiment [1] is described as follows: NIH-3T3 fibroblast cytotoxicity, dose response, cytotoxicity control, cell-based, fluorescence, Alamar Blue, secondary assay (AID 2327).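 Further: NIH-3T3 mouse fibroblasts cultured with fluconazole at 8 µg/mL.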 Format: functional.
The target of experiment [2] is ATP-dependent molecular chaperone HSP82 (Candida albicans (strain WO-1) (Yeast), UniProt C4YTQ8). In words: steroid-induced GRE reporter decrease in yeast – S. cerevisiae, luminescence, Hsp90 inhibitor project, dose response (AID 2400).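 Further: beta-galactosidase luminescence from glucocorticoid response element reporter as proxy for Hsp90 function; inhibitor potency where signal loss means Hsp90 inhibition.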 It is filed as functional, cell-based.
Chain of ATP-dependent molecular chaperone HSP82 (C4YTQ8 whole entry): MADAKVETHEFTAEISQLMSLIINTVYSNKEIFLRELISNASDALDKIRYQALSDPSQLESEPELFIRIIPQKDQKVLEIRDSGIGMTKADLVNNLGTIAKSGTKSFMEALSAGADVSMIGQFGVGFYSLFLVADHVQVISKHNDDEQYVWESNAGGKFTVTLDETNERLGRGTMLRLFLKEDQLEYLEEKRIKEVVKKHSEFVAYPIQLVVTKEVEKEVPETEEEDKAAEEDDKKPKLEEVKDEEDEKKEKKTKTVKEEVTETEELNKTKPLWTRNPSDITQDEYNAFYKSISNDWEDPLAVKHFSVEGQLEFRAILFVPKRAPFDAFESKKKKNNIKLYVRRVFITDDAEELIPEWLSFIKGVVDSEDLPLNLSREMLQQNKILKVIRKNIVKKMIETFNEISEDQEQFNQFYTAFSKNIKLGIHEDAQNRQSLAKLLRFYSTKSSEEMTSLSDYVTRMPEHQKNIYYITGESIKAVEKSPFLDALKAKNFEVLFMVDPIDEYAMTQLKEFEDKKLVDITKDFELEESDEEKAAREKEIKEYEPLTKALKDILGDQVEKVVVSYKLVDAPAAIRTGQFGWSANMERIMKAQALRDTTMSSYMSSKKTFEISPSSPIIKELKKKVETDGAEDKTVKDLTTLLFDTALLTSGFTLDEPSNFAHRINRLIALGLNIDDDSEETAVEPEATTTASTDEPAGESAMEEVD
A short description of experiment [3]: fluconazole-exposed Candida albicans growth modulators – fluorescence, retest, confirmation (AID 2467). Format: functional, cell-based.
A short description of experiment [4]: microbe, parasite or virus in culture. It is filed as functional. Conditions: Mycobacterium tuberculosis.
The target in experiment [5] is T1, Serine/threonine-protein phosphatase (Candida dubliniensis (strain CD36 / CBS 7987 / NCPF 3949 / NRRLY-17841) (Yeast), UniProt B9W6M3).
T1 sequence (B9W6M3 whole entry): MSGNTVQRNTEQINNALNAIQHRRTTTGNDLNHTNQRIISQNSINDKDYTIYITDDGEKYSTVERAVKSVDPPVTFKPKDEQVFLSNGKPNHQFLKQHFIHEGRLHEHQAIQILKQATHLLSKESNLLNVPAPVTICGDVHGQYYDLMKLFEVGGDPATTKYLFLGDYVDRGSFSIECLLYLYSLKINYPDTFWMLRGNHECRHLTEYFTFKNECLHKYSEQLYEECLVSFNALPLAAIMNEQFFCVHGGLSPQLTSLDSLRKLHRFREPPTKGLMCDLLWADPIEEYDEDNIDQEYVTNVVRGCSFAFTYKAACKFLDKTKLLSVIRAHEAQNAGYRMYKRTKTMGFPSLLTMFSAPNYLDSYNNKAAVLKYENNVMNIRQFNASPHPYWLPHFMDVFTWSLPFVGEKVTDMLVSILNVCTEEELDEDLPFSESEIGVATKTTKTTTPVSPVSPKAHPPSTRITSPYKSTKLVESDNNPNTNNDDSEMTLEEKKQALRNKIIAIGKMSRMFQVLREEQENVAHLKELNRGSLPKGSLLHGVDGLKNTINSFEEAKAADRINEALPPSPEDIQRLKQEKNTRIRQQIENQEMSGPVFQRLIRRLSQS
In words: blockers of CaCl2-induced CDRE-lacZ signaling – S. cerevisiae, luminescence, secondary, dose response (AID 2388).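 Further: yeast reporter cells carrying a calcineurin-responsive lacZ construct stimulated with calcium chloride; luminescent beta-galactosidase reporter signal in whole cells rather than isolated phosphatase activity; potency for inhibition where a drop in reporter signal means calcineurin blockade.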 Format: functional, cell-based.

Experiment [6] has as its target T2, Endoribonuclease toxin MazF (Escherichia coli K-12, UniProt P0AE70).
T2 sequence (P0AE70 whole entry): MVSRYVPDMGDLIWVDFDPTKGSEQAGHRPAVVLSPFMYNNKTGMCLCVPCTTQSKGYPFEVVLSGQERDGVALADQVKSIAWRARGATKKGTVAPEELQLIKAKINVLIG
In words: substrate-only fluorescence increase artefacts – biochemical, single-stranded RNase substrate, counter-screen for MazEF activator project, dose response (AID 588502). It is filed as functional. In general terms: A counterscreen serves to expose hits that act by an unwanted route or on another target.

The target of experiment [7] is T2, Endoribonuclease toxin MazF. In words: activation of MazEF endoribonuclease cleavage – biochemical, fluorescence, single-stranded RNA substrate, uHTS hits, dose response (AID 588481). It is filed as functional.
Experiment [8] has as its target T3, Sentrin-specific protease 6 (Homo sapiens, UniProt Q9GZR1).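 Further: Luminescence-based dose-response confirmatory assay of SENP6 inhibition, following up an ultra-high-throughput screen.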
T3 sequence (Q9GZR1 whole entry): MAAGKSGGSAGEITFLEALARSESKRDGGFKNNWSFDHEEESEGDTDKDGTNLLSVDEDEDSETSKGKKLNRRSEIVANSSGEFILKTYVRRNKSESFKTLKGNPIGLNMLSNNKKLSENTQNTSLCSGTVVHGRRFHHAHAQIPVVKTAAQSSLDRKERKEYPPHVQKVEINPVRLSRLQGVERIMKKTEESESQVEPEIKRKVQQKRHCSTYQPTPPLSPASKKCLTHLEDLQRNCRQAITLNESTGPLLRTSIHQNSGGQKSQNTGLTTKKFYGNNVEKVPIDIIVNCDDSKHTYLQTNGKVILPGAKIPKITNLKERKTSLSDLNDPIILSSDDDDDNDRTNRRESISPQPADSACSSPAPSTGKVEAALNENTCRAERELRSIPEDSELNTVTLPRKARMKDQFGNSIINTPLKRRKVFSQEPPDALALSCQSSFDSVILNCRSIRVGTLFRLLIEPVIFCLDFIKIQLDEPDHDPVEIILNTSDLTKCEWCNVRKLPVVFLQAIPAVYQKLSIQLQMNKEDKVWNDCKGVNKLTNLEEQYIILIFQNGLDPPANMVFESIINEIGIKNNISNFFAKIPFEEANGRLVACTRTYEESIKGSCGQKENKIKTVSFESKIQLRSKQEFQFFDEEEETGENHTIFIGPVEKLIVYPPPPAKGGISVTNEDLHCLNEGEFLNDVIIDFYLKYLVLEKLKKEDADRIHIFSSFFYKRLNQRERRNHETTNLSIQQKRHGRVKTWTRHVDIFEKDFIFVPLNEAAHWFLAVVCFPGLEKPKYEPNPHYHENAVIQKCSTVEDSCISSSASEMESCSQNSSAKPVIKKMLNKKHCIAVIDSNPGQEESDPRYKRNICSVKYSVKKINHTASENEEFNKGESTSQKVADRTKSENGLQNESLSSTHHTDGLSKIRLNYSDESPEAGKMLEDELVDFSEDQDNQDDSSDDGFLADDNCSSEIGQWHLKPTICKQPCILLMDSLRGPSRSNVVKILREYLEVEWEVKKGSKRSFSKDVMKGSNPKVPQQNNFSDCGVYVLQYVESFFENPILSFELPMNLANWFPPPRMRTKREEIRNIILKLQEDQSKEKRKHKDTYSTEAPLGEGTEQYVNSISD
It is filed as functional.

For experiment [9], the target named is T4, Oxysterols receptor LXR-beta (Homo sapiens, UniProt P55055).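 Further: agonist activity at LXR measured by a cell-based luminescence readout across a dose range, run as a counterscreen for daf-12 agonists; HEK293 cells with Gal4-LXR fusion and GAL4-driven luciferase reporter; potency for activation of Gal4-LXR reporter so compounds are agonists.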
T4 sequence (P55055 whole entry): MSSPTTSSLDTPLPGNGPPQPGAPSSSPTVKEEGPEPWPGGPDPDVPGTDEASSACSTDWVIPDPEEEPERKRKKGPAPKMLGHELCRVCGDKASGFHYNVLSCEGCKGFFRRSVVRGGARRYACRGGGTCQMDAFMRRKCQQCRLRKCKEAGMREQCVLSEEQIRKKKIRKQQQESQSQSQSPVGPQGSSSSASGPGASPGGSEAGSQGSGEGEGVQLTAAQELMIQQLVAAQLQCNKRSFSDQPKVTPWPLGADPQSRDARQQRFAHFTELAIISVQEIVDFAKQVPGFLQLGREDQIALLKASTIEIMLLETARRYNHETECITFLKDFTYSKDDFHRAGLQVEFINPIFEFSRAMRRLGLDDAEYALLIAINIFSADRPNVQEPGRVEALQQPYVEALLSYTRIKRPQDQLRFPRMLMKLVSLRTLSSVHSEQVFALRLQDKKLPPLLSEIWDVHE
It is filed as functional, cell-based.

For a further experiment, the target named is T5, Caspase-3 (Homo sapiens, UniProt P42574).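 Further: Dose-response selectivity test against caspase-3 for candidate inhibitors of sentrin-specific proteases (SENPs).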
T5 sequence (P42574 whole entry): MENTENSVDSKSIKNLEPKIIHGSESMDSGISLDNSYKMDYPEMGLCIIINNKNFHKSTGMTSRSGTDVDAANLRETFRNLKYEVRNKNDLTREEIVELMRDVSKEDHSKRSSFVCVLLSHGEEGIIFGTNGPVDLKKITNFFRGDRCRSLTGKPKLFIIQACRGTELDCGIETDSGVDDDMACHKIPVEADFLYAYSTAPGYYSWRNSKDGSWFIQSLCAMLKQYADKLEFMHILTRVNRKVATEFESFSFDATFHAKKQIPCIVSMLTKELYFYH
It is filed as functional.

The target of experiment [10] is T6, Sentrin-specific protease 8 (Homo sapiens, UniProt Q96LD8).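 Further: luminescence read-out of SENP8 inhibition, dose-response confirmation following an ultra-high-throughput screen.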
T6 sequence (Q96LD8 whole entry): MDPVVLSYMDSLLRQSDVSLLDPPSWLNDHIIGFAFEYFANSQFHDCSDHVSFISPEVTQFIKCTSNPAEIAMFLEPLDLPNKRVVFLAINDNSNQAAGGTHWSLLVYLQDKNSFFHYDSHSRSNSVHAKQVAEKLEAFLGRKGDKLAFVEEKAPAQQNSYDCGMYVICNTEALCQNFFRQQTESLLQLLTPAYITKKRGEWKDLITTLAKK
Format: functional.

Experiment [11] deals with T7, Sentrin-specific protease 7 (Homo sapiens, UniProt Q9BQF6).
T7 sequence (Q9BQF6 whole entry): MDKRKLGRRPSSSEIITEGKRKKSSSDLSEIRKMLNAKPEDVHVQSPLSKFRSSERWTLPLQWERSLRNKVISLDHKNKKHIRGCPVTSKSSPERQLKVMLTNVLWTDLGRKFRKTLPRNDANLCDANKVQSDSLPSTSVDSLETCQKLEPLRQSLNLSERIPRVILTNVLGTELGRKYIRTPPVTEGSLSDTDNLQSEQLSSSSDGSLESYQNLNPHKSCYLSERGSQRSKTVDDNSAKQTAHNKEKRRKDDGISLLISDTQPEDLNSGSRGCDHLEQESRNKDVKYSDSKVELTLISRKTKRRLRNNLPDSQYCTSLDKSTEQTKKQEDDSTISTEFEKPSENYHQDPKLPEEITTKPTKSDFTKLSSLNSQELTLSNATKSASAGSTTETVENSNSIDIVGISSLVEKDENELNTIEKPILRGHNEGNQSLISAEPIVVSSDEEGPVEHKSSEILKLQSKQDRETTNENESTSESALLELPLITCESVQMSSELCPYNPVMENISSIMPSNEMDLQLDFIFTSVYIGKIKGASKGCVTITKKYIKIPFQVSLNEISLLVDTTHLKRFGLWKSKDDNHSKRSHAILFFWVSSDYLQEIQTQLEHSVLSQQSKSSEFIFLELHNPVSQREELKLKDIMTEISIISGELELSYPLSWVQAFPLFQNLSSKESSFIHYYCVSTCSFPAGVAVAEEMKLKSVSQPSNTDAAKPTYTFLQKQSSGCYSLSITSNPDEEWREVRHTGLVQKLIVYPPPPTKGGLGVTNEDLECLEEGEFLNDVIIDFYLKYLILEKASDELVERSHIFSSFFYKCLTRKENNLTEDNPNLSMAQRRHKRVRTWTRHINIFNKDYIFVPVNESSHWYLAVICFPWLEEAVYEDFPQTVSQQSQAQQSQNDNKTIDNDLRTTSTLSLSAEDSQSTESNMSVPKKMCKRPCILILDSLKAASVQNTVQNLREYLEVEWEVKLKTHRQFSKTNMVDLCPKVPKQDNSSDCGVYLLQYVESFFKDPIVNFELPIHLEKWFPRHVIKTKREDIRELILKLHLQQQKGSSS
It is filed as functional.

Experiment [12] concerns the target FAD-linked sulfhydryl oxidase ALR (Homo sapiens, UniProt P55789). In words: ALR-catalysed DTT oxidation blockers – biochemical, H2O2 detection, luminescence, cherry-pick, dose response (AID 493248).
For another experiment, the system named is INS1. In words: INS-1E survival protection against cytokine death – cell-based, luminescence, retest, dose response (AID 449756).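 Further: cell death triggered by IL-1 beta plus TNF-alpha plus IFN-gamma mixture; protective hits raise ATP signal compared with cytokine alone wells.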 Format: functional. Conditions: Rattus norvegicus.
The next experiment has as its target Nonstructural protein 1 (Influenza A virus, UniProt Q194T2). Format: functional, Influenza A virus (A/California/07/2009(H1N1)).

Chain of Nonstructural protein 1 (Q194T2 whole entry): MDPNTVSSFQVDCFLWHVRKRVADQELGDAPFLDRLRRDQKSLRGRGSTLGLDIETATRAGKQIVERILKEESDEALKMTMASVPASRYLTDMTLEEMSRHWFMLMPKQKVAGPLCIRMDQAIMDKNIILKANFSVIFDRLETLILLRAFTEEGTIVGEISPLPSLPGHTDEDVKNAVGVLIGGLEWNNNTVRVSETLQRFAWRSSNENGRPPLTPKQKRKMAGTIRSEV
Chain of FAD-linked sulfhydryl oxidase ALR (P55789 whole entry): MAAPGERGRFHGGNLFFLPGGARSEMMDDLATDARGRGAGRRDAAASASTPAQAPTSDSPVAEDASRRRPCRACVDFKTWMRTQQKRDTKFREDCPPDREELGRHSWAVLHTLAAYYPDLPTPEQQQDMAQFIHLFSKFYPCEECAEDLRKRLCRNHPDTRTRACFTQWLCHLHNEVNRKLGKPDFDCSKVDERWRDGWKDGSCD

As for `O=[N+]([O-])c1nn(-c2ccc(Cl)cc2)[n+]([O-])c1NCc1cccnc1`, the EC50 (in general, the concentration at which the effect is half-maximal) in experiment [1] is > 160 µM (inactive); in experiment [2] it was > 150 µM (inactive); in experiment [3], 1.11 µM (active); in [5], > 180 µM (inactive). Moreover, in experiment [4], the CC50 is > 40 µM (active).

Take `CSC1=N/C(=C\c2ccc(C)s2)C(=O)S1`: the EC50 in [6] is 72 µM (inactive); in experiment [7] it was 89.7 µM (inactive).

With `COc1cccc(C2=CC(c3ccc(N(C)C)cc3)n3nnnc3N2)c1` (stereo unspecified), the EC50 in [6] and in [7] was > 99 µM (inactive) in each case.

Take `CCOc1ccc2nc(NC(=O)Nc3cccs3)sc2c1`: the half-maximal inhibitory concentration (IC50) (commonly the concentration needed to halve the response being measured) in experiment [8] is 19.2 µM (active); on Caspase-3, 29.9 µM (active); in [10], 24.1 µM (active); in [11], 8.66 µM (active). Besides, the EC50 in experiment [9] was > 67.5 µM (inactive).

Take `Oc1ccc(N=Nc2nccs2)c(O)c1`: the EC50 in experiment [1] was 16 µM (inconclusive); in [2], 21.8 µM (active); in [3], 1.19 µM (active); in experiment [5], > 180 µM (inactive). The AC50 (in general, the concentration at which the activity in the assay is half-maximal) is 4.55 µM (active) in experiment [12] and 2.78 µM (active) in the experiment on INS1. In addition, at Nonstructural protein 1, the IC50 was 11.4 µM (active).

The values above are taken from ChEMBL document CHEMBL1201862, “PubChem BioAssay data set” (2004).
